Laboratory results taken from patent US20200150109A1, “MICROTUBULE-TARGETING DRUGS AS IMMUNE CHECKPOINT INHIBITORS AND METHODS OF SCREENING NOVEL IMMUNE CHECKPOINT INHIBITORS FOR THE TREATMENT OF CANCERS AND INFECTIOUS DISEASES” (INSERM (Institut National de la Santé et de la Recherche …, priority 2017, published 2020).
Entries after “also recorded” stand apart in the source; their conditions may differ.

Legend:
[1] = tested on: TIM3; test: Immune checkpoint expression by activated T lymphocytes (flow cytometry), TIM3; type: cell-based, human; conditions: CD3+ T lymphocytes activated with anti-CD3/CD28 beads + IL-2; CI-980 10 nM; 3 days
Method: (§1) CD3+ T lymphocyes were activated with anti-CD3/CD28 antibodies-coated beads plus IL-2, in the presence or absence of CI-980 (10 nM), and immune checkpoint expression were assessed by flow cytometry 3 days later.
(§2) PBMC isolated from healthy donors were activated with CD3/CD28 antibodies-coated beads (ThermoFisher) and IL-2 (100 IU/ml) in the presence of the specified concentration of the tested drug. In the example (FIG. 1), these drugs include CI-980 (so-called NSC 613862 or mivobulin) (10 nM, or 1 nM and 0.1 nM as indicated in Figures), Combretastatin-A4 (CBT-A4), (100 nM), Colchicine (100 nM), Indibulin (100 nM), Vincristine (1 μM), Vinblastine (1 μM), Vinflunine (1 μM), Vinorelbine (1 μM), Paclitaxel (1 μM), 13-Lumi(−)-Colchicine (100 nM), Camptothecin (CPT) (1 μM), Triptolide (100 nM), Mitomycin C (1 μM), Aphidicolin (1 μM). After 3 days of in vitro cell culture in complete medium at 37° C. in a humidified atmosphere containing 5% CO2, cells were immunostained for CD3 (BioLegend, clone UCHT1), CD4 (BioLegend, clone RPA-T4), CD8 (BioLegend, clone RPA-T8), CD69 (BioLegend, clone FN50), CD279 (BD Biosciences, clone EH12.1), LAG3 (BioLegend, clone 11C3C65), TIM3 (BioLegend, clone F38-2E2) and CTLA4 (BioLegend, clone BNI3) expression and then analysed for immune checkpoint expression by flow cytometry and gating on the indicated subsets of T or NK cells.

[2] = tested on: Karpas-299; test: Cytotoxicity assay, drug-treated activated PBMC against Karpas-299; type: cell-based, human; conditions: PBMC activated 3 days with CI-980 10 nM, rinsed, 4 hours with Karpas-299, 2:1 effector-to-target ratio
Method: (§3) PBMC isolated from healthy donors were activated with anti-CD3/CD28 antibodies-coated beads plus IL-2, in the presence or absence of CI-980 (10 nM). After 3 days, PBMC were rinsed and co-incubated for 4 hours with the PD-L1^+ cancer cell lines Karpas-299 or SU-DHL-1. Specific lysis of the target cell lines was then measured by staining of dying cells with propidium iodide (PI) and flow cytometry analysis.
(§4) PBMC isolated from healthy donors, used as effector cells, were activated with CD3/CD28 beads and IL-2, in presence or absence of CI-980 (10 nM). Human cancer cell lines-expressing PD-L1 karpas-299 and SU-DHL-1 were used as targets cells. Prior to be mixed with the effector cells, target cells were labelled with CellTrace-Violet (ThermoFisher) in order to distinguish them from the effector cells. After 3 days, effector cells were rinsed and combined with target cells at a 2:1 effector-to-target ratio. Cells were incubated during 4 hours at 37° C. and specific lysis were analysed by flow cytometry. The percentage of lysis was determined as percent of cells positive for both propidium iodide (PI) and CellTrace-Violet versus cells positive for CellTrace-Violet.

[3] = tested on: CTLA4; test: Immune checkpoint expression by activated T lymphocytes (flow cytometry), CTLA4; type: cell-based, human; conditions: CD3+ T lymphocytes activated with anti-CD3/CD28 beads + IL-2; CI-980 10 nM; 3 days
Method: as §1, §2

[4] = tested on: PD-1 mRNA; test: qRT-PCR of PD-1 mRNA from activated CD3+ T lymphocytes; type: cell-based, human; conditions: activated CD3+ T lymphocytes treated or not with CI-980; 3 independent experiments
[5] = tested on: SU-DHL-1; test: Cytotoxicity assay, drug-treated activated PBMC against SU-DHL-1; type: cell-based, human; conditions: PBMC activated 3 days with CI-980 10 nM, rinsed, 4 hours with SU-DHL-1, 2:1 effector-to-target ratio
Method: as §3, §4

[6] = tested on: LAG3; test: Immune checkpoint expression by activated T lymphocytes (flow cytometry), LAG3; type: cell-based, human; conditions: CD3+ T lymphocytes activated with anti-CD3/CD28 beads + IL-2; CI-980 10 nM; 3 days
Method: as §1, §2

[7] = tested on: PD-1 protein; test: Immunoblot of PD-1 protein in CD3+ T lymphocyte cell extracts; type: cell-based, human; conditions: CD3+ T lymphocytes cell extracts, treated or not with CI-980; 3 independent experiments
Method: CD3+T lymphocytes cell extracts, treated or not with CI-980, were analyzed by immunoblots.

[8] = tested on: PD-1 (CD279); test: Cell-based test of PD-1 cell surface expression by activated T lymphocytes (flow cytometry); design: species or system human; conditions: PBMC activated with CD3/CD28 beads + IL-2, 3 days, drugs at their optimum IC50 for proliferation (CPT, mitomycin C, aphidicolin 1 μM; triptolide, Lumi-colchicine 100 nM)
Method: Shown are means and standard deviations from more than ten independent experiments, using drugs at their respective optimum IC50 for proliferation.
as §2

[9] = biological target: T1, PD-1 protein (programmed cell death protein 1, endogenous, from activated human CD3+ T lymphocytes) (human, UniProt Q15116 25-288); test: co-immunoprecipitation with anti-α-tubulin antibody from activated human CD3+ T lymphocyte extract, immunoblot for PD-1
T1 construct: Endogenous PD-1 in a T lymphocyte cell extract, detected by Western blot with anti-PD-1 (ThermoFisher PA5-20350); also called CD279; PDCD1
T1 sequence (Q15116 25-288 limits assumed): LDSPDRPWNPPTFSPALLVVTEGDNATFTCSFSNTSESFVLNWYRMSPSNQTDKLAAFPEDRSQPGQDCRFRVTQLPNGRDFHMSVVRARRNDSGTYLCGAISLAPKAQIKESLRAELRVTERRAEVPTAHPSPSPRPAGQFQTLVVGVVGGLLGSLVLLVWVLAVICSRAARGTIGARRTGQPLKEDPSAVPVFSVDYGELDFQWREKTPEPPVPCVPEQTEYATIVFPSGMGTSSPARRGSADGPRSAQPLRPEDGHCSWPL
Method: FIG. 4: PD-1 protein is not associated with tubulin in T lymphocytes.
α-tubulin was immunoprecipitated from activated CD3+T lymphocytes isolated from human PBMC of healthy donors using an anti-α-tubulin antibody (Sigma-Aldrich, clone B-5-1-2). Immunoprecipitation control with an anti-PD-1 antibody (ebioscience, clone J116) was also carried out. Immunoprecipitates were subjected to SDS-PAGE, and the co-immunoprecipitated PD-1 was assessed by Western Blot using an anti-PD-1 antibody (ThermoFisher, # PA5-20350).

CCOC(=O)Nc1cc2c(c(N)n1)N=C(c1ccccc1)[C@H](C)N2 [CI-980]
expression of TIM3 [1]: inhibits
cytolytic activity (specific lysis of target cells, PI staining) [2]: enhance cytolytic activity of immune cells
expression of CTLA4 [3]: inhibits
PD-1 mRNA level (qRT-PCR) [4]: increase PD-1 mRNA level
cytolytic activity (specific lysis of target cells, PI staining) [5]: enhance cytolytic activity of immune cells
expression of LAG3 [6]: inhibits
expression of PD-1 protein (immunoblot) [7]: inhibit expression of PD-1 protein

C[C@@]1(CO)[C@H](O)CC[C@@]2(C)[C@H]1CC[C@H]1C[C@@H]3C[C@@]12CC[C@]3(O)CO [aphidicolin]
PD-1 cell surface expression [8]: do not inhibit PD-1 expression; also recorded: do not impact PD-1 expression

COC1=C[C@@H]2C3=C([C@@H]2C1=O)[C@@H](NC(C)=O)CCc1cc(OC)c(OC)c(OC)c13 [beta-Lumi(−)-colchicine]
PD-1 cell surface expression [8]: does not affect PD-1 expression
PD-1 cell surface expression ([8]; listed as β-Lumi(−)-Colchicine): do not impact PD-1 expression

CC[C@@]1(O)C(=O)OCc2c1cc1n(c2=O)Cc2cc3ccccc3nc2-1 [camptothecin]
PD-1 cell surface expression [8]: do not inhibit PD-1 expression; also recorded: do not impact PD-1 expression

CO[C@@]12[C@H](COC(N)=O)C3=C(C(=O)C(C)=C(N)C3=O)N1C[C@@H]1N[C@@H]12 [mitomycin C]
PD-1 cell surface expression [8]: do not inhibit PD-1 expression; also recorded: do not impact PD-1 expression

CC(C)[C@]12O[C@H]1[C@@H]1O[C@]13[C@]1(O[C@H]1C[C@H]1C4=C(CC[C@@]13C)C(=O)OC4)[C@@H]2O [triptolide]
PD-1 cell surface expression [8]: do not inhibit PD-1 expression; also recorded: do not impact PD-1 expression

B1: tubulin (endogenous, immunoprecipitated with an anti-α-tubulin antibody from extracts of activated human CD3+ T lymphocytes) (other)
chain 1: MRECISIHVGQAGVQIGNACWELYCLEHGIQPDGQMPSDKTIGGGDDSFNTFFSETGAGKHVPRAVFVDLEPTVIDEVRTGTYRQLFHPEQLITGKEDAANNYARGHYTIGKEIIDLVLDRIRKLADQCTRLQGFLVFHSFGGGTGSGFTSLLMERLSVDYGKKSKLEFSIYPAPQVSTAVVEPYNSILTTHTTLEHSDCAFMVDNEAIYDICRRNLDIERPTYTNLNRLISQIVSSITASLRFDGALNVDLTEFQTNLVPYPRIHFPLATYAPVISAEKAYHEQLSVADITNACFEPANQMVKCDPGHGKYMACCLLYRGDVVPKDVNAAIATIKTKRTIQFVDWCPTGFKVGINYQPPTVVPGGDLAKVQRAVCMLSNTTAIAEAWARLDHKFDLMYAKRAFVHWYVGEGMEEGEFSEAREDMAALEKDYEEVGVDSVEGEGEEEGEEY
chain 2: MREIVHIQAGQCGNQIGAKFWEVISDEHGIDPTGTYHGDSDLQLDRISVYYNEATGGKYVPRAILVDLEPGTMDSVRSGPFGQIFRPDNFVFGQSGAGNNWAKGHYTEGAELVDSVLDVVRKEAESCDCLQGFQLTHSLGGGTGSGMGTLLISKIREEYPDRIMNTFSVVPSPKVSDTVVEPYNATLSVHQLVENTDETYCIDNEALYDICFRTLRLTTPTYGDLNHLVSGTMECVTTCLRFPGQLNADLRKLAVNMVPFPRLHFFMPGFAPLTSRGSQQYRALTVPDLTQQVFDAKNMMAACDPRHGRYLTVAAVFRGRMSMKEVDEQMLNVQNKNSSYFVEWIPNNVKTAVCDIPPRGLKMAVTFIGNSTAIQELFKRISEQFTAMFRRKAFLHWYTGEGMDEMEFTEAESNMNDLVSEYQQYQDATAEEEEDFGEEAEEEA
notes: Endogenous protein from a cell lysate; also called alpha-tubulin
binding result [9]: no binding
